Measurements taken from patent publication US10112941B2, “Tricyclic compounds as anticancer agents” (BRISTOL-MYERS SQUIBB COMPANY, priority 2013, dated 2018).

molecular target: BRD4 (Homo sapiens, UniProt O60885); assay: Time Resolved Fluorescence Resonance Energy Transfer (TR-FRET) binding assay, BRD4; details: one of the FRET assays described; read-out: FRET BRD4 IC50

SMILES	IC50
Cc1nnn(C)c1-c1cnc2c3ccc(C(C)(C)O)cc3n(C(c3c(F)cccc3F)C3CCOCC3)c2c1 (single isomer, unassigned) [Example 133, 2-{5-[(2,6-Difluorophenyl)(oxan-4-yl)methyl]-3-(dimethyl-1H-1,2,3-triazol-5-yl)-5H-pyrido[3,2-b]indol-7-yl}propan-2-ol]	< 5 nM
Cc1nnn(C)c1-c1cnc2c3ccc(C(C)(C)NC(=O)CN(C)C)cc3n(C(c3ccccc3)C3CCOCC3)c2c1 (single isomer, unassigned) [Example 167, N-{2-[3-(Dimethyl-1H-1,2,3-triazol-5-yl)-5-[oxan-4-yl(phenyl)methyl]-5H-pyrido[3,2-b]indol-7-yl]propan-2-yl}-2-(dimethylamino)acetamide]	< 5 nM
COc1ccc(S(C)(=O)=O)c2c1c1ncc(-c3c(C)nnn3C)cc1n2[C@H](c1ccccc1F)C1CCOCC1 [Example 188, 5-{5-[(S)-(2-Fluorophenyl)(oxan-4-yl)methyl]-6-methanesulfonyl-9-methoxy-5H-pyrido[3,2-b]indol-3-yl}-1,4-dimethyl-1H-1,2,3-triazole]	< 5 nM
[2H]C([2H])([2H])c1nnn(C)c1-c1cnc2c3ccc(C(C)(O)C4CC4)c(F)c3n([C@H](c3ccccc3F)C3CCOCC3)c2c1 (stereo partly drawn) [Example 437, 1-Cyclopropyl-1-{6-fluoro-5-[(S)-(2-fluorophenyl)(oxan-4-yl)methyl]-3-[4-(^2H3)methyl-1-methyl-1H-1,2,3-triazol-5-yl]-5H-pyrido[3,2-b]indol-7-yl}ethan-1-ol]	< 5 nM
Cc1nnn(C)c1-c1cnc2c3ccc(C(C)(C)O)cc3n([C@@H](c3ccccc3)C3CCOCC3)c2c1 (single isomer, unassigned) [Example 55, 2-[3-(Dimethyl-1H-1,2,3-triazol-5-yl)-5-[oxan-4-yl(phenyl)methyl]-5H-pyrido[3,2-b]indol-7-yl]propan-2-ol]	< 5 nM
[2H]C([2H])([2H])c1nnn(C)c1-c1cnc2c3ccc(S(C)(=O)=O)cc3n(C(c3ccccc3)C3CCC(F)(F)CC3)c2c1 (stereo not shown) [Example 159, 5-{5-[(4,4-Difluorocyclohexyl)(phenyl)methyl]-7-methanesulfonyl-5H-pyrido[3,2-b]indol-3-yl}-4-(^2H3)methyl-1-methyl-1H-1,2,3-triazole]	< 5 nM
Cc1nnn(C)c1-c1cnc2c3ccc(S(C)(=O)=O)cc3n([C@H](c3ccccc3)C3CCOCC3)c2c1 [Example 177, 5-{7-Methanesulfonyl-5-[(S)-oxan-4-yl(phenyl)methyl]-5H-pyrido[3,2-b]indol-3-yl}-1,4-dimethyl-1H-1,2,3-triazole]	< 5 nM
Cc1noc(C)c1-c1cnc2c3ccc(C(C)(C)O)cc3n(C(c3ncccc3F)C3CCOCC3)c2c1 (single isomer, unassigned) [Example 345, 2-[3-(Dimethyl-1,2-oxazol-4-yl)-5-[(3-fluoropyridin-2-yl)(oxan-4-yl)methyl]-5H-pyrido[3,2-b]indol-7-yl]propan-2-ol]	< 5 nM
COc1ccc(C(C2CCOCC2)n2c3cc(C(C)(C)O)ccc3c3ncc(-c4c(C)nnn4C)cc32)cc1 (single isomer, unassigned) [Example 249, 2-[3-(Dimethyl-1H-1,2,3-triazol-5-yl)-5-[(4-methoxyphenyl)(oxan-4-yl)methyl]-5H-pyrido[3,2-b]indol-7-yl]propan-2-ol]	< 5 nM
[2H]C([2H])([2H])c1nnn(C)c1-c1cnc2c3c(F)cc(S(C)(=O)=O)cc3n(C(c3ccccc3)C3CCC(F)(F)CC3)c2c1 (single isomer, unassigned) [Example 200, 5-{5-[(4,4-Difluorocyclohexyl)(phenyl)methyl]-9-fluoro-7-methanesulfonyl-5H-pyrido[3,2-b]indol-3-yl}-4-(^2H3)methyl-1-methyl-1H-1,2,3-triazole]	< 5 nM
Cc1nnn(C)c1-c1cnc2c3ccc(C(=O)N4CC(F)(F)C4)cc3n([C@H](c3ccccc3)C3CCOCC3)c2c1 [Example 414, 5-[7-(3,3-Difluoroazetidine-1-carbonyl)-5-[(S)-oxan-4-yl(phenyl)methyl]-5H-pyrido[3,2-b]indol-3-yl]-1,4-dimethyl-1H-1,2,3-triazole]	< 5 nM
Cc1nnn(C)c1-c1cnc2c3cc(F)c(C(C)(O)C4CC4)c(F)c3n([C@H](c3ccccc3)C3CCOCC3)c2c1 (single isomer, unassigned) [Example 450]	< 5 nM
Cc1noc(C)c1-c1cnc2c3ccc(C(C)(C)O)cc3n([C@H](CCC(F)(F)F)c3cscn3)c2c1 [Example 19]	< 5 nM
Cc1nnn(C)c1-c1cnc2c3ccc(C(C)(C)F)cc3n([C@H](c3ccccc3)C3CCOCC3)c2c1 [Example 351, 5-[7-(2-Fluoropropan-2-yl)-5-[(S)-oxan-4-yl(phenyl)methyl]-5H-pyrido[3,2-b]indol-3-yl]-1,4-dimethyl-1H-1,2,3-triazole]	< 5 nM
[2H]C([2H])([2H])c1nnn(C)c1-c1cnc2c3c(S(C)(=O)=O)cccc3n([C@H](c3ccccc3)C3CCOCC3)c2c1 [Example 268, 5-{9-Methanesulfonyl-5-[(S)-oxan-4-yl(phenyl)methyl]-5H-pyrido[3,2-b]indol-3-yl}-4-(^2H3)methyl-1-methyl-1H-1,2,3-triazole]	< 5 nM
Cc1nnn(C)c1-c1cnc2c3c(S(C)(=O)=O)cc(F)c(F)c3n([C@H](c3ccccc3)C3CCOCC3)c2c1 [Example 160, 5-{6,7-Difluoro-9-methanesulfonyl-5-[(S)-oxan-4-yl(phenyl)methyl]-5H-pyrido[3,2-b]indol-3-yl}-1,4-dimethyl-1H-1,2,3-triazole]	< 5 nM

SMILES	IC50
[2H]C([2H])([2H])c1nnn(C)c1-c1cnc2c3ccc(C(C)(C)O)cc3n(C(c3ccc(F)cc3F)C3CCOCC3)c2c1 (stereo not shown) [Example 280, 2-{5-[(2,4-Difluorophenyl)(oxan-4-yl)methyl]-3-[4-(^2H3)methyl-1-methyl-1H-1,2,3-triazol-5-yl]-5H-pyrido[3,2-b]indol-7-yl}propan-2-ol]	< 5 nM
Cc1nnn(C)c1-c1cnc2c3ccc(C(C)(C)O)cc3n(C(c3ccccc3Cl)C3CCOCC3)c2c1 (single isomer, unassigned) [Example 403]	< 5 nM
Cn1nnc(CF)c1-c1cnc2c3ccc(S(C)(=O)=O)cc3n([C@H](c3ccccc3)C3CCOCC3)c2c1 [Example 180, 4-(Fluoromethyl)-5-{7-methanesulfonyl-5-[(S)-oxan-4-yl(phenyl)methyl]-5H-pyrido[3,2-b]indol-3-yl}-1-methyl-1H-1,2,3-triazole]	< 5 nM
Cc1noc(C)c1-c1cnc2c3ccc(C(C)(C)O)cc3n(C(c3ccc(F)cc3F)C3CCOCC3)c2c1 (single isomer, unassigned) [Example 126, 2-{5-[(2,4-Difluorophenyl)(oxan-4-yl)methyl]-3-(dimethyl-1,2-oxazol-4-yl)-5H-pyrido[3,2-b]indol-7-yl}propan-2-ol]	< 25 nM
COc1cnccc1C(C1CCOCC1)n1c2cc(C(C)(C)O)ccc2c2ncc(-c3c(C)nnn3C)cc21 (stereo not shown) [Example 291]	< 5 nM
Cc1nnn(C)c1-c1cnc2c3ccc(C(C)(C)O)cc3n([C@@H](CCC(F)(F)F)c3ccccc3)c2c1 [Example 57]	< 5 nM
Cc1noc(C)c1-c1cnc2c3ccc(C(C)(C)O)cc3n(C(c3ccccc3)c3cscn3)c2c1 (single isomer, unassigned) [Example 30, 2-[3-(Dimethyl-1,2-oxazol-4-yl)-5-[phenyl(1,3-thiazol-4-yl)methyl]-5H-pyrido[3,2-b]indol-7-yl]propan-2-ol]	< 5 nM
Cc1nnn(C)c1-c1cnc2c3ccc(C(C)(O)C4CC4)c(F)c3n([C@H](c3ccccc3)C3CCOCC3)c2c1 (stereo partly drawn) [Example 416, 1-Cyclopropyl-1-{6-fluoro-3-[4-(^2H3)methyl-1-methyl-1H-1,2,3-triazol-5-yl]-5-[(S)-oxan-4-yl(phenyl)methyl]-5H-pyrido[3,2-b]indol-7-yl}ethan-1-ol]	< 5 nM
[2H]C([2H])([2H])c1nnn(C)c1-c1cnc2c3cc(F)c(C(C)(C)O)cc3n([C@H](c3ccc(F)cc3)C3CCOCC3)c2c1 [Example 277, 2-{8-Fluoro-5-[(S)-(4-fluorophenyl)(oxan-4-yl)methyl]-3-[4-(^2H3)methyl-1-methyl-1H-1,2,3-triazol-5-yl]-5H-pyrido[3,2-b]indol-7-yl}propan-2-ol]	< 5 nM
Cc1nnn(C)c1-c1cnc2c3ccc(C(C)(C)O)cc3n(C(c3cccc(F)c3)C3CCOCC3)c2c1 (single isomer, unassigned) [Example 100, 2-[3-(Dimethyl-1H-1,2,3-triazol-5-yl)-5-[(3-fluorophenyl)(oxan-4-yl)methyl]-5H-pyrido[3,2-b]indol-7-yl]propan-2-ol]	< 5 nM
Cc1noc(C)c1-c1cnc2c3ccc(C(C)(C)O)c(F)c3n(C(c3ccc(F)cc3)C3CCOCC3)c2c1 (single isomer, unassigned) [Example 81, 2-[3-(Dimethyl-1,2-oxazol-4-yl)-6-fluoro-5-[(4-fluorophenyl)(oxan-4-yl)methyl]-5H-pyrido[3,2-b]indol-7-yl]propan-2-ol]	< 5 nM
Cc1nnn(C)c1-c1cnc2c3c(F)cc(C(C)(C)O)cc3n(C(c3cccc(F)c3)C3CCOCC3)c2c1 (single isomer, unassigned) [Example 113, 2-[3-(Dimethyl-1H-1,2,3-triazol-5-yl)-9-fluoro-5-[(3-fluorophenyl)(oxan-4-yl)methyl]-5H-pyrido[3,2-b]indol-7-yl]propan-2-ol]	< 1500 nM
[2H]C([2H])([2H])c1nnn(C)c1-c1cnc2c3cc(F)c(C(C)(C)O)c(F)c3n([C@H](c3ccccc3)C3CCOCC3)c2c1 [Example 452, 2-{6,8-Difluoro-3-[4-(^2H3)methyl-1-methyl-1H-1,2,3-triazol-5-yl]-5-[(S)-oxan-4-yl(phenyl)methyl]-5H-pyrido[3,2-b]indol-7-yl}propan-2-ol]	< 5 nM
Cc1cnn(C)c1-c1cnc2c3ccc(S(C)(=O)=O)cc3n([C@H](c3ccccc3)C3CCOCC3)c2c1 [Example 417, 5-{7-Methanesulfonyl-5-[(S)-oxan-4-yl(phenyl)methyl]-5H-pyrido[3,2-b]indol-3-yl}-1,4-dimethyl-1H-pyrazole]	< 5 nM
Cc1nnn(C)c1-c1cnc2c3ccc(C(C)(C)O)cc3n(C(c3ncccn3)C3CCOCC3)c2c1 (single isomer, unassigned) [Example 292]	< 5 nM
